Each structure is given as a SMILES string.

One assay deals with IFNα-induced STAT phosphorylation (pSTAT5) in human whole blood. The assay can be described thus: IFNα-Induced STAT Phosphorylation in Human Whole Blood. As to conditions: 1 h incubation with compound, 1000 U/mL recombinant human IFNα A/D for 15 min, pSTAT5 in CD3 positive population, read-out: IFNα-Induced Stat Phosph. (IC50). The format is cell-based. Here is the method:
IFNα-Induced STAT Phosphorylation in Human Whole Blood
After an hour long incubation with compound, human whole blood (drawn with either EDTA or ACD-A as anti-coagulant) was stimulated with 1000 U/mL recombinant human IFNα A/D (R&D Systems 11200-2) for 15 min. The stimulation was stopped by adding Fix/Lyse buffer (BD 558049). Cells were stained with a CD3 FITC antibody (BD 555916), washed, and permeabilized on ice using Perm III buffer (BD 558050). Cells were then stained with an Alexa-Fluor 647 pSTAT5 (pY694) antibody (BD 612599) for 30 min prior to analysis on the FACS Canto II. The amount of pSTAT5 expression was quantitated by median fluorescence intensity after gating on the CD3 positive population.
As usually defined, the IC50 is the concentration at which inhibition is half-maximal. With `CNC(=O)c1nnc(Nc2ccccn2)cc1Nc1ncccc1S(C)(=O)=O` [Example 160], the IC50 amounted to 11 nM. For the compound `CNC(=O)c1nnc(Nc2cc(Cl)n(C)n2)cc1Nc1ncccc1S(C)(=O)=O` [Example 161], the IC50 stood at 47 nM. Still for that read-out and setting: the same measure for `CNC(=O)c1nnc(NC(=O)CC2CC2)cc1Nc1ncccc1S(C)(=O)=O` [Example 164]: 88 nM; for `CNC(=O)c1nnc(Nc2cc(C3CC3)nc(C)n2)cc1Nc1ncccc1S(C)(=O)=O` [Example 165]: 23 nM. The same measure, in the same setting: the figure for `CNC(=O)c1nnc(Nc2ccn(C3CC3)n2)cc1Nc1ncccc1S(C)(=O)=O` [Example 167] is 60 nM.

With `CCC(=O)Nc1cc(Nc2nc(F)ccc2S(C)(=O)=O)c(C(=O)NC)nn1` [Example 179], the IC50 is 1060 nM. In the case of `CNC(=O)c1nnc(NC(=O)C2CC2)cc1Nc1nc(F)ccc1S(C)(=O)=O` [Example 180], the IC50 was determined as 73 nM. Same read-out and setting: the same measure for `CNC(=O)c1nnc(Nc2ccc(OC)nn2)cc1Nc1nc(F)ccc1S(C)(=O)=O` [Example 181]: 550 nM. Same read-out and setting: the figure for `CNC(=O)c1nnc(Nc2ccc(-c3c(F)cccc3F)nn2)cc1Nc1nc(F)ccc1S(C)(=O)=O` [Example 182] is 2230 nM; for `CNC(=O)c1nnc(Nc2ccc(-c3c(F)cccc3F)nn2)cc1Nc1nc(C)ccc1S(C)(=O)=O` [Example 184] it is 263 nM. With `CNC(=O)c1nnc(Nc2cc(C)nc(C)n2)cc1Nc1nc(C)ccc1S(C)(=O)=O` [Example 185], the concentration for half-maximal inhibition (IC50) stood at 1730 nM. As to `CCC(=O)Nc1cc(Nc2nc(C)ccc2S(C)(=O)=O)c(C(=O)NC)nn1` [Example 186], the IC50 turned out to be 132 nM. `CNC(=O)c1nnc(NC(=O)C2CC2)cc1Nc1nc(C)ccc1S(C)(=O)=O` [Example 187]: the IC50 came to 32 nM. With `CNC(=O)c1nnc(Nc2ccc(C(C)(C)O)cn2)cc1Nc1nc(C)ccc1S(C)(=O)=O` [Example 188], the IC50 is 6 nM.

Regarding `CNC(=O)c1nnc(Nc2ccc(-n3cccc(C(F)(F)F)c3=O)cn2)cc1Nc1nc(C)ccc1S(C)(=O)=O` [Example 190], the IC50 turned out to be 61 nM.

`CCNC(=O)Nc1cc(Nc2nc(C)ccc2S(C)(=O)=O)c(C(=O)NC)nn1` [Example 191]: the IC50 is 66 nM. With `CNC(=O)c1nnc(Nc2ccc(N3CCOCC3)cn2)cc1Nc1nc(C)ccc1S(C)(=O)=O` [Example 192], the IC50 turned out to be 13 nM.

`CCCCNC(=O)Nc1cc(Nc2nc(C)ccc2S(C)(=O)=O)c(C(=O)NC)nn1` [Example 193]: the IC50 amounted to 165 nM. With `CNC(=O)c1nnc(Nc2cc(Cl)c(C(C)(C)O)cn2)cc1Nc1nc(C)ccc1S(C)(=O)=O` [Example 194], the half-maximal inhibitory concentration (IC50) came out at 35 nM.

On to `CNC(=O)c1nnc(Nc2ccn3nccc3n2)cc1Nc1nc(C)ccc1S(C)(=O)=O` [Example 195], for which the IC50 came to 211 nM. Still for that read-out and setting: the figure for `CNC(=O)c1nnc(Nc2ccc(N3CCOCC3=O)cn2)cc1Nc1nc(C)ccc1S(C)(=O)=O` [Example 196] is 12 nM. Same read-out and setting: the figure for `CNC(=O)c1nnc(Nc2cc(C3CC3)ccn2)cc1Nc1nc(C)ccc1S(C)(=O)=O` [Example 197] is 58 nM; for `CNC(=O)c1nnc(NC(=O)C2CC2(C)C)cc1Nc1nc(C)ccc1S(C)(=O)=O` (centres unmarked) [Example 198] it is 262 nM; for `CNC(=O)c1nnc(NC(=O)C2CC2)cc1Nc1nc(OC)ccc1S(C)(=O)=O` [Example 200] it is 198 nM. The same measure, in the same setting: the same measure for `CNC(=O)c1nnc(Nc2ccc(C(C)(C)O)cn2)cc1Nc1nc(OC)ccc1S(C)(=O)=O` [Example 201]: 24 nM. Take `CNC(=O)c1nnc(Nc2cc(Cl)c(C(C)(C)O)cn2)cc1Nc1nc(OC)ccc1S(C)(=O)=O` [Example 202]: the IC50 amounted to 50 nM. Consider `CNC(=O)c1nnc(Nc2ccc(N3CCOCC3)cn2)cc1Nc1nc(OC)ccc1S(C)(=O)=O` [Example 203], for which the IC50 was 46 nM.

`CNC(=O)c1nnc(Nc2ccn(C)n2)cc1Nc1nc(OC)ccc1S(C)(=O)=O` [Example 204]: the IC50 was determined as 579 nM.

The assay is the same for the next values; noted with them: Homo sapiens, 1 h incubation with compound, 1000 U/mL recombinant human IFNα A/D for 15 min, pSTAT5 in CD3 positive population, read-out: IFNα-Induced Stat Phosph. (IC50).
`[2H]C([2H])([2H])NC(=O)c1nnc(NC(=O)C2CC2)cc1Nc1ncccc1S(C)(=O)=O` [Example 159, 6-(cyclopropanecarboxamido)-N-trideuteromethyl-4-((3-(methylsulfonyl)pyridin-2-yl)amino)pyridazine-3-carboxamide]: the IC50 was determined as 12 nM. For the compound `[2H]C([2H])([2H])NC(=O)c1nnc(NC(C)=O)cc1Nc1ncccc1S(C)(=O)=O` [Example 163, 6-acetamido-N-trideuteromethyl-4-((3-(methylsulfonyl)pyridin-2-yl)amino)pyridazine-3-carboxamide], the IC50 came out at 95 nM. Same read-out and setting: the same measure for `[2H]C([2H])([2H])NC(=O)c1nnc(Nc2ccn(C)n2)cc1Nc1ncccc1S(C)(=O)=O` [Example 166, N-trideuteromethyl-6-((1-methyl-1H-pyrazol-3-yl)amino)-4-((3-(methylsulfonyl)pyridin-2-yl)amino)pyridazine-3-carboxamide]: 40 nM. Turning to `[2H]C([2H])([2H])NC(=O)c1nnc(Nc2ccc(C(C)(C)NC(C)C)cn2)cc1Nc1ncccc1S(C)(=O)=O` [Example 169, 6-((5-(2-(isopropylamino)propan-2-yl)pyridin-2-yl)amino)-N-(methyl-d3)-4-((3-(methylsulfonyl)pyridin-2-yl)amino)pyridazine-3-carboxamide], the IC50 amounted to 8 nM. As to `[2H]C([2H])([2H])NC(=O)c1nnc(Nc2ccc(C(C)(C)OC(C)=O)cn2)cc1Nc1ncccc1S(C)(=O)=O` [Example 171, 2-(6-((6-((methyl-d3)carbamoyl)-5-((3-(methylsulfonyl)pyridin-2-yl)amino)pyridazin-3-yl)amino)pyridin-3-yl)propan-2-yl acetate], the IC50 worked out at 9 nM. With `[2H]C([2H])([2H])NC(=O)c1nnc(Nc2ccc(C(F)F)cn2)cc1Nc1ncccc1S(C)(=O)=O` [Example 172, 6-((5-(difluoromethyl)pyridin-2-yl)amino)-N-(methyl-d3)-4-((3-(methylsulfonyl)pyridin-2-yl)amino)pyridazine-3-carboxamide], the IC50 was 18 nM.

Regarding `[2H]C([2H])([2H])NC(=O)c1nnc(Nc2cncc(C)n2)cc1Nc1ncccc1S(C)(=O)=O` [Example 173, N-(methyl-d3)-6-((6-methylpyrazin-2-yl)amino)-4-((3-(methylsulfonyl)pyridin-2-yl)amino)pyridazine-3-carboxamide], the IC50 amounted to 17 nM. Turning to `[2H]C([2H])([2H])NC(=O)c1nnc(NC(=O)C2CC2(Cl)Cl)cc1Nc1ncccc1S(C)(=O)=O` (centres unmarked) [Example 174, 6-(2,2-dichlorocyclopropane-1-carboxamido)-N-(methyl-d3)-4-((3-(methylsulfonyl)pyridin-2-yl)amino)pyridazine-3-carboxamide], the IC50 worked out at 1810 nM. Same read-out and setting: the figure for `[2H]C([2H])([2H])NC(=O)c1nnc(NC(=O)[C@H]2C[C@@H]2C(F)(F)F)cc1Nc1ncccc1S(C)(=O)=O` [Example 175, N-(methyl-d3)-4-((3-(methylsulfonyl)pyridin-2-yl)amino)-6-((1S,2S)-2-(trifluoromethyl)cyclopropane-1-carboxamido)pyridazine-3-carboxamide] is 278 nM; for `[2H]C([2H])([2H])NC(=O)c1nnc(NC(=O)[C@@H]2C[C@H]2C(F)(F)F)cc1Nc1ncccc1S(C)(=O)=O` [Example 176, N-(methyl-d3)-4-((3-(methylsulfonyl)pyridin-2-yl)amino)-6-((1R,2R)-2-(trifluoromethyl)cyclopropane-1-carboxamido)pyridazine-3-carboxamide] it is 132 nM; for `[2H]C([2H])([2H])NC(=O)c1nnc(NC(=O)C2CC(F)(F)C2)cc1Nc1ncccc1S(C)(=O)=O` [Example 177, 6-(3,3-difluorocyclobutane-1-carboxamido)-N-(methyl-d3)-4-((3-(methylsulfonyl)pyridin-2-yl)amino)pyridazine-3-carboxamide] it is 648 nM. As for `[2H]C([2H])([2H])NC(=O)c1nnc(Nc2cc(C)nc(C)n2)cc1Nc1nc(F)ccc1S(C)(=O)=O` [Example 178, 6-((2,6-dimethylpyrimidin-4-yl)amino)-4-((6-fluoro-3-(methylsulfonyl)pyridin-2-yl)amino)-N-(methyl-d3)pyridazine-3-carboxamide], the IC50 is 474 nM. The same measure, in the same setting: the same measure for `[2H]C([2H])([2H])NC(=O)c1nnc(Nc2ccc(OC)nn2)cc1Nc1nc(C)ccc1S(C)(=O)=O` [Example 183, 6-((6-methoxypyridazin-3-yl)amino)-N-(methyl-d3)-4-((6-methyl-3-(methylsulfonyl)pyridin-2-yl)amino)pyridazine-3-carboxamide]: 105 nM.

With `[2H]C([2H])([2H])NC(=O)c1nnc(NC(=O)CC)cc1Nc1nc(OC)ccc1S(C)(=O)=O` [Example 199, 4-((6-methoxy-3-(methylsulfonyl)pyridin-2-yl)amino)-N-(methyl-d3)-6-propionamidopyridazine-3-carboxamide], the IC50 is 1030 nM.

On to `[2H]C([2H])([2H])NC(=O)c1nnc(Nc2ccc(C(C)(C)O)cc2)cc1Nc1nc(C2CC2)ccc1S(C)(=O)=O` [Example 207, 4-((6-cyclopropyl-3-(methylsulfonyl)pyridin-2-yl)amino)-6-((4-(2-hydroxypropan-2-yl)phenyl)amino)-N-(methyl-d3)pyridazine-3-carboxamide], for which the IC50 was found to be 229 nM. On the same count and under the same terms, the same measure for `CNC(=O)c1nnc(Nc2ccc(OC)nn2)cc1Nc1ncccc1S(C)(=O)=O` [Example 209, 6-((6-methoxypyridazin-3-yl)amino)-N-methyl-4-((3-(methylsulfonyl)pyridin-2-yl)amino)pyridazine-3-carboxamide]: 56 nM.
